Data on eight compounds can be found in PubChem BioAssay (NCI).

Structures are written as SMILES.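 Tested at 5 concentrations; 48 h exposure; 96-well plates; endpoints linearly interpolated, else capped at highest concentration. TGI denotes the concentration required for complete inhibition of growth.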 Where only a bound is given, the exact number is not on record here.

Some test systems named below: PC-3 prostate; MDA-MB-435; SK-MEL-2 melanoma; A498 renal; HS 578T breast; T-47D breast; NCI-H460 lung; CAKI-1 renal; DU-145 prostate; MALME-3M melanoma; MOLT-4 leukemia; SW-620 colon; SF-268 CNS; K-562 leukemia; LOX IMVI melanoma; MDA-MB-231 breast; OVCAR-8 ovarian; CCRF-CEM leukemia; SR leukemia.
Common to all, as to assay: NCI-60 cell line screen, 48 h

Consider `O=C(/C=C/c1ccc([N+](=O)[O-])cc1)N1CCN(CCOC(c2ccc(F)cc2)c2ccc(F)cc2)CC1`, for which the TGI with PC-3 prostate, in the experiment with MDA-MB-435, in the experiment on SK-MEL-2 melanoma, with A498 renal, with HS 578T breast and with T-47D breast was greater than 100 µM each time. Also, the TGI in the experiment on NCI-H460 lung was greater than 100 µM; in the experiment with CAKI-1 renal, greater than 100 µM; in the experiment with DU-145 prostate, greater than 100 µM; with MALME-3M melanoma it was greater than 100 µM; in the experiment on MOLT-4 leukemia, 19 µM; in the experiment with SW-620 colon it was greater than 100 µM. The TGI in the experiment with SF-268 CNS, in the experiment with K-562 leukemia, in the experiment with LOX IMVI melanoma, in the experiment on MDA-MB-231 breast, in the experiment with OVCAR-8 ovarian and with CCRF-CEM leukemia was greater than 100 µM each time. The TGI with SR leukemia came out at 40.5 µM.

In the case of `COC(=O)CN(CC(=O)NCCNC(=O)OC(C)(C)C)C1CCCCC1N(CC(=O)OC)CC(=O)OC` (stereo not given), the TGI in the experiment with PC-3 prostate, with MDA-MB-435, with SK-MEL-2 melanoma, with A498 renal, in the experiment on HS 578T breast and with T-47D breast was greater than 100 µM throughout. For the same compound, the TGI with NCI-H460 lung, with CAKI-1 renal, in the experiment on DU-145 prostate, with MALME-3M melanoma, in the experiment on MOLT-4 leukemia and in the experiment with SW-620 colon was greater than 100 µM throughout. The TGI in the experiment with SF-268 CNS, with K-562 leukemia, in the experiment on LOX IMVI melanoma, in the experiment on MDA-MB-231 breast, in the experiment on OVCAR-8 ovarian and in the experiment with CCRF-CEM leukemia was greater than 100 µM each time. This compound registered a TGI with SR leukemia greater than 100 µM.

In the case of `O=S(=O)(CC(Cl)c1ccccc1)c1nc2ccccc2s1` (stereo not given), the TGI with PC-3 prostate was 29.9 µM; with MDA-MB-435, 20.5 µM; in the experiment on SK-MEL-2 melanoma, 37.4 µM; in the experiment on A498 renal it was 35.1 µM; in the experiment with HS 578T breast, greater than 69 µM; in the experiment on T-47D breast, 41.7 µM. The TGI with NCI-H460 lung was 52.4 µM; in the experiment with CAKI-1 renal, 4.4 µM; in the experiment on DU-145 prostate it was 30.2 µM; with MALME-3M melanoma, 23.6 µM; in the experiment with MOLT-4 leukemia, 7.64 µM; in the experiment with SW-620 colon it was 20.7 µM. Also, the TGI in the experiment on SF-268 CNS was 33.1 µM; with K-562 leukemia it was 7.43 µM; in the experiment on LOX IMVI melanoma it was 4.04 µM; with MDA-MB-231 breast, 30.4 µM; in the experiment with OVCAR-8 ovarian, 23.8 µM; with CCRF-CEM leukemia it was 4.28 µM. In the experiment on SR leukemia, this compound returned a TGI of 4.55 µM.

Turning to `O=C(O)CCC(NC(=O)c1ccc(Oc2nc3ccccc3nc2C(=O)O)cc1)C(=O)O` (stereo not given), the TGI in the experiment with PC-3 prostate, in the experiment on MDA-MB-435, with SK-MEL-2 melanoma, with A498 renal, in the experiment on HS 578T breast and with T-47D breast was greater than 100 µM throughout. The TGI in the experiment on NCI-H460 lung, with CAKI-1 renal, with DU-145 prostate, with MALME-3M melanoma, in the experiment on MOLT-4 leukemia and with SW-620 colon was greater than 100 µM each time. The TGI in the experiment on SF-268 CNS, in the experiment on K-562 leukemia, in the experiment with LOX IMVI melanoma, in the experiment on MDA-MB-231 breast, in the experiment with OVCAR-8 ovarian and with CCRF-CEM leukemia was greater than 100 µM in each case. Also, in the experiment with SR leukemia, the TGI is greater than 100 µM.

With `COCN1C(=O)[C@@H]2C[C@@H](O)CN2C(=O)c2ccccc21`, the TGI in the experiment with PC-3 prostate, with MDA-MB-435, with SK-MEL-2 melanoma, in the experiment with A498 renal, with HS 578T breast and in the experiment with T-47D breast was greater than 100 µM in each case. For the same compound, the TGI with NCI-H460 lung, in the experiment with CAKI-1 renal, with DU-145 prostate, in the experiment with MALME-3M melanoma, in the experiment with MOLT-4 leukemia and in the experiment with SW-620 colon was greater than 100 µM each time. Further, the TGI in the experiment with SF-268 CNS, with K-562 leukemia, in the experiment with LOX IMVI melanoma, in the experiment with MDA-MB-231 breast, with OVCAR-8 ovarian and in the experiment with CCRF-CEM leukemia was greater than 100 µM in each case. The TGI with SR leukemia is greater than 100 µM.

For the compound `C/C(=N\O)c1ccc(OCc2cc(C(F)(F)F)cc(C(F)(F)F)c2)cc1`, the TGI in the experiment with PC-3 prostate, in the experiment with MDA-MB-435, in the experiment on SK-MEL-2 melanoma, in the experiment with A498 renal, with HS 578T breast and in the experiment with T-47D breast was greater than 100 µM each time. Moreover, the TGI with NCI-H460 lung is 69.1 µM; with CAKI-1 renal, greater than 100 µM; in the experiment on DU-145 prostate, greater than 100 µM; in the experiment with MALME-3M melanoma it was greater than 100 µM; in the experiment on MOLT-4 leukemia, 68.5 µM; with SW-620 colon it was greater than 100 µM. The TGI in the experiment on SF-268 CNS is greater than 100 µM; in the experiment with K-562 leukemia, greater than 100 µM; in the experiment with LOX IMVI melanoma it was greater than 100 µM; in the experiment on MDA-MB-231 breast, greater than 100 µM; with OVCAR-8 ovarian, greater than 100 µM; in the experiment on CCRF-CEM leukemia, 89.3 µM. The compound further came in with a TGI with SR leukemia greater than 100 µM.

With `CC(NNC(=O)c1ccncc1)c1ccccc1` (stereo not given), the TGI in the experiment on PC-3 prostate, with MDA-MB-435, in the experiment with SK-MEL-2 melanoma, in the experiment on A498 renal, in the experiment with HS 578T breast and in the experiment on T-47D breast was greater than 100 µM in each case. In addition, the TGI in the experiment on CAKI-1 renal, with DU-145 prostate, in the experiment on MALME-3M melanoma, in the experiment with MOLT-4 leukemia, in the experiment with SW-620 colon and with SF-268 CNS was greater than 100 µM in each case. For the same compound, the TGI in the experiment on K-562 leukemia, in the experiment on LOX IMVI melanoma, in the experiment on MDA-MB-231 breast, in the experiment on OVCAR-8 ovarian, in the experiment with CCRF-CEM leukemia and in the experiment on SR leukemia was greater than 100 µM in each case.

On to `FC(F)(F)c1ccc2c(-c3cc[nH]c3)ccnc2c1`, for which the TGI in the experiment with PC-3 prostate is greater than 100 µM; with MDA-MB-435 it was greater than 100 µM; with SK-MEL-2 melanoma, greater than 100 µM; with A498 renal, 51.8 µM; in the experiment on HS 578T breast, 56.4 µM; with T-47D breast, greater than 100 µM. Further, the TGI was greater than 100 µM with NCI-H460 lung; 94 µM with CAKI-1 renal; greater than 100 µM with DU-145 prostate; 50.4 µM with MALME-3M melanoma; 59.3 µM with MOLT-4 leukemia; greater than 100 µM in the experiment with SW-620 colon. The TGI in the experiment with K-562 leukemia is greater than 100 µM; with LOX IMVI melanoma, 48.9 µM; in the experiment on MDA-MB-231 breast, greater than 100 µM; in the experiment on OVCAR-8 ovarian, greater than 100 µM; with CCRF-CEM leukemia, greater than 100 µM; in the experiment with SR leukemia it was 84.9 µM.
